From BindingDB's records for PubMed 10087018 (University of Rochester, 1999)

Assays:
[1] = biological target: Mu-type opioid receptor (Bos taurus, UniProt P79350)
[2] = biological target: Opioid receptor delta 1 (Bos taurus, UniProt F1N083)
Chain of Opioid receptor delta 1 (F1N083 whole entry): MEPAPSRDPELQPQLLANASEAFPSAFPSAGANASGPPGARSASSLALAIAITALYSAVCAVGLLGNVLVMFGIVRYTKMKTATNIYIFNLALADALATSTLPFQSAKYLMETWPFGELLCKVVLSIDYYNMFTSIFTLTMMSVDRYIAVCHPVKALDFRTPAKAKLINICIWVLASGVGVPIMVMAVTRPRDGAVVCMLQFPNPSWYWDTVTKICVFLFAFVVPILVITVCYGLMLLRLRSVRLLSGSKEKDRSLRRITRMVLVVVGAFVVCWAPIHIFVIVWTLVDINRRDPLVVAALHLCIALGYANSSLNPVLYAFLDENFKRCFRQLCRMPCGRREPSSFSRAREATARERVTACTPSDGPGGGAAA

Chain of Mu-type opioid receptor (P79350 whole entry): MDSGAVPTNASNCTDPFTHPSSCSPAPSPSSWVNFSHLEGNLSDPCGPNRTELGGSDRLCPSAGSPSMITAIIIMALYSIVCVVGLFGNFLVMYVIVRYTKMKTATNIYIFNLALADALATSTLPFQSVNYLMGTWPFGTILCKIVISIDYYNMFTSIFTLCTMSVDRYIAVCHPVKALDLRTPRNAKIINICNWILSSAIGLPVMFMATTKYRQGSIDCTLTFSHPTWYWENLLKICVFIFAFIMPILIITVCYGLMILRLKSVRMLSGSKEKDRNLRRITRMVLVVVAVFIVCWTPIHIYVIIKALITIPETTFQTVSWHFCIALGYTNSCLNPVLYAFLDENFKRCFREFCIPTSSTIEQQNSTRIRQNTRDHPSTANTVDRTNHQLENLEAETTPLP

SMILES	Ki [1] [nM]	Ki [2] [nM]
COc1ccc2c3c1O[C@H]1C(=O)CCC4(NC(=O)/C=C\c5ccc(Cl)cc5)C(C2)N(CC2CC2)CCC314 (stereo partly specified) [MC-CAM]	1.4	12
COc1ccc2c3c1O[C@H]1C(=O)CCC4(NC(=O)/C=C\c5ccc([N+](=O)[O-])cc5)C(C2)N(C)CCC314 (stereo partly specified) [CACO]	0.46	
COc1ccc2c3c1O[C@H]1C(=O)CCC4(NC(=O)/C=C\c5ccc([N+](=O)[O-])cc5)C(C2)N(CC2CC2)CCC314 (stereo partly specified) [N-CPM-CACO]		16
COc1ccc2c3c1O[C@H]1C(=O)CCC4(NC(=O)/C=C\c5ccc(Cl)cc5)C(C2)N(C)CCC314 (stereo partly specified) [CAM]	0.12	0.75
